Assay results from patent publication US20200292528A1, “CELL CHEMOTAXIS ASSAYS” (The General Hospital Corporation, priority 2013, published 2020).

Legend:
[1] = tested on: neutrophils; experiment: Microfluidic neutrophil chemotaxis assay, healthy donor whole blood (finger prick, venous) and isolated neutrophils; format: cell-based, human; details: for neutrophils recruited from finger prick whole blood (count): average of 16 attractant chambers
Description: Capillary blood (50 μL) was collected by pricking a finger of healthy volunteers. The blood was then pipetted into an eppendorf tube containing a mixed solution of HBSS media, heparin anti-coagulant (1.65 USP/50 μL of blood), and Hoescht stain (10 μL, 32.4 μM). […] Louis, Mo.) or Leukotriene B4 (LTB4) (Caymen Chemicals, Ann Arbor, Mich.) [100 nM] immediately after the PDMS donut-shaped device was bonded to the well plate. The chemoattractant solution also contained fibronectin [25 nM] (Sigma-Aldrich, St. Louis, Mo.) to promote neutrophil surface adhesion. The chemoattractant was pipetted into the whole blood loading chamber (WBLC) and directly around the circumference of the device. […] Afterwards, the central whole-blood loading chamber and the outside region surrounding the donut were washed thoroughly with Phosphate Buffered Saline (PBS) in each well to wash away excess chemoattractant. The wells of the plate were then filled with RPMI 1640 media and allowed to sit for a period of 15 minutes to generate stable chemoattractant gradients. […] Capillary blood (50 μL) was collected by pricking a finger of healthy volunteers. The blood was then pipetted into an eppendorf tube containing a mixed solution of HBSS media, heparin anti-coagulant (1.65 USP/50 μL of blood), and Hoescht stain (10 μL, 32.4 μM). […] For venous blood samples, 10 mL of peripheral blood was drawn from a health volunteer into tubes containing 33 US […] (Vacutainer, Becton Dickinson, Franklin Lakes, N.J.). […] To compare the whole blood results with neutrophil migration from an isolated sample, we also isolated human neutrophils from whole blood using HetaSep followed by the EasySep Human Neutrophil Enrichment Kits (STEMCELL Technologies Inc. Vancouver, Canada) following the manufacturer's protocol. […] Louis, Mo.) at a density of 40,000 cells/μL and kept at 37° C. cell until devices were properly primed. […] Directionality of primed neutrophils was quantified by counting the number of cells that followed the chemotactic gradient and turned at the bifurcation toward the chemoattractant chamber as opposed to the number of cells that exited the device to the peripheral region. Cell velocities were calculated using Image J (NIH) and data analysis with GraphPad Prism. Neutrophil migration toward different attractants (fMLP and LTB4) was also examined. […] The concentrations of the three different chemoattractants were varied from 10 nM to 50 nM to 100 nM. Solutions containing fibronectin [25 nM] and exclusive of fibronection were prepared. Finger prick blood and venous blood were obtained as described above in Example 3.

[2] = tested on: human neutrophils; experiment: Inter-species microfluidic neutrophil chemotaxis from one droplet of whole blood: human; format: cell-based; details: for percentage of neutrophils that migrated: 2 μL whole blood
Description: (§1) The microfluidic device to study mouse, rat and human neutrophil chemotaxis from one droplet of whole blood was designed with three main components: focal chemoattractant chambers (FCCs) (200×200 μm), a central whole-blood loading chamber, and migration channels containing RBC filtering regions. The filter for each migration channel included 10 short channels (Length ˜75 μm) with a 3.5 μm narrowing region (‘pinch’) connected horizontally through an approximately 200-μm-long channel to create 90° bending sections capable of trapping the RBCs to prevent them from dispersing into the rest of the migration channel. All migration channels were designed to be 12 μm wide and 3 μm high to establish only a single column of RBCs for efficient trapping while allowing active mouse, rat and human neutrophils to easily migrate through. The devices were fabricated as described above in Example 2.
(§2) For humans, 50 μL of capillary blood was collected by pricking a finger of healthy volunteers. For mice, 50 μL of capillary blood was collected by the facial vein method (Institutional animal care and use Protocol #2007N000136) requiring no anesthesia. For rats, 50 μL of venous blood was collected from the tail vein (Institutional animal care and use Protocol #2012N000034) using 1-2% Isoflurane inhalant. The blood was then pipetted into an eppendorf tube containing a mixed solution of HBSS media, heparin anti-coagulant (1.65 USP/50 μL of blood), and Hoechst stain (10 μL, 32.4 μM). The eppendorf tube was then incubated for 10 minutes at 37° C. and 5% CO2 to allow for proper staining of the nuclei.
(§3) All reagents and whole blood were pipetted into the device and there was no flow or requirement of external syringe pump. A gradient of the chemoattractant was established along the migration channels by diffusion between the chemoattractant chambers and the central loading chamber. Prior to cell loading and immediately after bonding to the well plate, donut-shaped devices were filled with the chemoattractant solution containing 25 nM of fibronectin (Sigma-Aldrich, St. Louis, Mo.). The well plate was then placed in a desiccator under vacuum to de-gas for 15 minutes to ensure proper filling of the chambers while the PDMS surface was still hydrophilic. Afterwards, the central whole-blood loading chamber and the outside region surrounding the donut were washed thoroughly in each well to establish the gradient along the migration channels. The wells of the plate were then filled with RPMI 1640 media and allowed to sit for a period of 15 minutes to generate stable chemoattractant gradients. Finally, using a gel-lading tip, 2 μL of whole blood was slowly pipetted into the central whole-blood loading chamber.
(§4) Time-lapse imaging was performed on a Nikon Eclipse Ti microscope with 10-15× magnification and a biochamber heated to 37° C. with 5% CO2 and 80% humidity. […] For each experiment, at least 50 neutrophils were manually tracked. Directionality of primed neutrophils was quantified by counting the number of cells that followed the chemotactic gradient and turned at the bifurcation toward the chemoattractant chamber as opposed to the number of cells that exited the device to the peripheral region. Cell velocities were calculated using ImageJ (NIH). Total percentage of neutrophils to migrate was estimated using a COMSOL simulation model that estimated that 30.6% of area in whole blood loading chamber from which neutrophils could migrate in experimental time to be above critical gradient concentration. For an average human experiment, this would estimate ˜277 neutrophils per well that are exposed to chemoattractant gradient.

[3] = tested on: Wistar rat neutrophils; experiment: Inter-species microfluidic neutrophil chemotaxis from one droplet of whole blood: Wistar rat; format: cell-based; details: for percentage of neutrophils that migrated: Wistar rat whole blood
Description: as §1, §2
All reagents and whole blood were pipetted into the device and there was no flow or requirement of external syringe pump. A gradient of the chemoattractant was established along the migration channels by diffusion between the chemoattractant chambers and the central loading chamber. Prior to cell loading and immediately after bonding to the well plate, donut-shaped devices were filled with the chemoattractant solution containing 25 nM of fibronectin (Sigma-Aldrich, St. Louis, Mo.). The well plate was then placed in a desiccator under vacuum to de-gas for 15 minutes to ensure proper filling of the chambers while the PDMS surface was still hydrophilic. […]
Time-lapse imaging was performed on a Nikon Eclipse Ti microscope with 10-15× magnification and a biochamber heated to 37° C. with 5% CO2 and 80% humidity. […] Directionality of primed neutrophils was quantified by counting the number of cells that followed the chemotactic gradient and turned at the bifurcation toward the chemoattractant chamber as opposed to the number of cells that exited the device to the peripheral region. Cell velocities were calculated using ImageJ (NIH). […]

[4] = tested on: mouse neutrophils; experiment: Inter-species microfluidic neutrophil chemotaxis from one droplet of whole blood: C57BL/6 and Sv129S6 mice; format: cell-based; details: for directionality of Sv129S6 mouse neutrophils compared with humans: Sv129S6 mouse versus human
Description: as §1, §2, §3, §4

[5] = tested on: neutrophils; experiment: Microfluidic neutrophil chemotaxis assay, blood of a burn patient (24% TBSA) over 3 weeks; format: cell-based, human; details: for neutrophil accumulation counts versus healthy volunteer: three weeks post-burn
Description: Blood samples of 1 mL were collected from one burn patient suffering from 24% total body surface area (TBSA) burn. Procedures for fabricating the device, preparing the chemoattractant gradient, and performing time-lapse imaging were conducted as explained above with respect to examples 2-4.
Neutrophil chemotaxis was monitored over a 3 week treatment period. FIG. 10A is a plot of neutrophil migration counts in the attractant chamber with no chemoattractant gradient, with fMLP chemoattractant gradient [100 nM], and with LTB4 chemoattractant gradient [100 nM]. FIG. 10B is a plot of velocity [μm/min] of neutrophils migrating to LTB4 compared with fMLP over a three week period. FIG. 10C is a plot of directionality index of neutrophils migrating to LTB4 compared with fMLP. All graphs correspond to average cell counts across 16 attractant chambers.

[6] = 1 week after burn, 100 nM gradient, versus healthy volunteer

For `CCCCC/C=C\C[C@@H](O)/C=C/C=C/C=C\[C@@H](O)CCCC(=O)O` [LTB4, Leukotriene B4], the “neutrophils recruited from finger prick whole blood (count)” value ([1]; 100 nM gradient, after 200 min) was 39±12 cells/device, the neutrophil velocity ([1]; finger prick whole blood) was 20±7 μm/min and the “percentage of neutrophils that migrated” value [2] was 54.0±5.6%. The “percentage of neutrophils that migrated” value [3] was 2.8±1.1%, the “percentage of neutrophils that migrated” value ([4]; C57BL/6 mouse whole blood) was 52.7±24% and the “directionality of Sv129S6 mouse neutrophils compared with humans” value [4] was “comparable”. For the same molecule, the “percentage of neutrophils that migrated” value ([4]; Sv129S6 mouse whole blood) was 99.5±13%, the “neutrophil accumulation counts versus healthy volunteer” value [5] was “in the normal range” and the “reduction in neutrophil velocity” value ([5]; two weeks post-burn) was 40%.

With `CSCC[C@H](NC=O)C(=O)N[C@@H](CC(C)C)C(=O)N[C@@H](Cc1ccccc1)C(=O)O` [fMLP, N-formyl-methionyl-leucyl-phenylalanine] the “neutrophils recruited from finger prick whole blood (count)” value ([1]; 100 nM gradient, after 200 min) was 86±7 cells/device, the neutrophil accumulation numbers ([1]; 100 nM gradient, after 3.5 hours, venous, finger prick and isolated neutrophil sources) was “around 135±20 cells/device” and the “average neutrophil migration counts in 6 separate devices” value ([1]; 100 nM gradient, finger prick whole blood of one healthy donor, after 200 min) was 83±12 cells. For the same molecule, the “neutrophil migration counts per chamber, average of healthy donors” value ([1]; 100 nM gradient, finger prick whole blood, after 200 min, 5 out of 7 donors clustered around it) was 92±35 cells, the “time until neutrophils began migrating towards the gradient” value ([1]; 100 nM gradient, venous and finger prick whole blood and isolated neutrophils) was no more than 20 min and the “neutrophil count recruited relative to LTB4” value ([1]; 100 nM gradients, finger prick whole blood, 200 min) was “two-fold higher count”. The neutrophil velocity ([1]; finger prick whole blood) was 19 ±6 μm/min, the “directional index of neutrophils” value [2] was 0.85±0.06 and the “velocity of neutrophils towards the chemoattractant” value [2] was 23.4±5.4 μm/min. The “percentage of neutrophils that migrated” value [2] was 55.8±19.8%, the “percentage of neutrophils that migrated” value [3] was 10.9±8.5% and the “directional index of neutrophils” value ([3]; rat) was 0.62±0.12. For the same molecule, the “velocity of neutrophils towards the chemoattractant” value ([3]; rat) was 26.2±5.9 μm/min, the “directional index of neutrophils” value ([4]; C57BL/6 mouse) was 0.61±0.07 and the “velocity of neutrophils towards the chemoattractant” value ([4]; C57BL/6 mouse) was 13±7.4 μm/min. The “velocity of C57BL/6 neutrophils, fold lower than Sv129S6, rat or human” value ([4]; C57BL/6 mouse versus Sv129S6, rat, human) was roughly 2.5 fold, the “directional index of neutrophils” value ([4]; Sv129S6 mouse) was 0.82±0.06 and the “velocity of neutrophils towards the chemoattractant” value ([4]; Sv129S6 mouse) was 19.7±8.7 μm/min. The reduction in directionality [5, 6] was 50%, the “reduction in neutrophil velocity” value [5, 6] was 75% and the “neutrophil accumulation counts versus healthy volunteer” value [5] was “lower than the average healthy volunteer count”. For the same molecule, the “number of cells accumulating, above the normal healthy volunteer range” value ([5]; two weeks post burn, patient had fever) was 15% and the “reduction in neutrophil velocity” value ([5]; two weeks post-burn) was 60%.

For fibronectin, the “effect of inclusion in the chemoattractant solution on final neutrophil counts migrating towards fMLP” value ([1]; 25 nM, pin prick and venous blood) was “does not appear to change final neutrophil counts”.

B1: C5a: the protein fragment C5a, neutrophil attractant (protein, UniProt P01031 678-751, looked up)
C5a anaphylatoxin: TLQKKIEEIAAKYKHSVVKKCCYDGACVNNDETCEQRAARISLGPRCIKAFTECCVVASQLRANISHKDMQLGR
modifications: C5a anaphylatoxin
notes: the protein fragment C5a, neutrophil attractant
With B1 the “percentage of neutrophils activated” value [2] was 63.3±7.6%, the “percentage of neutrophils that migrated in response to the chemoattractant in the FCC” value [2] was 26.8±5.9% and the “percentage of neutrophils activated” value ([4]; Sv129S6 mouse) was 18.3±3%. The “directionality of Sv129S6 mouse neutrophils compared with humans” value [4] was “lower than in humans”, the “migration pattern of activated mouse neutrophils” value ([4]; mouse) was “random migration” and the “percentage of neutrophils that migrated in response to the chemoattractant in the FCC” value ([4]; mouse (Sv129S6)) was 1±0.8%.
